# In US6352824B1, “Redox reversible bipyridyl-osmium complex conjugates” (Roche Diagnostics Corporation, priority 1998, dated 2002):
# Legend:
# [1] = molecular target: T1, HbAlc epitope of hemoglobin in lysed blood (Homo sapiens, UniProt P68871); assay: Blood denaturing for electrochemical HbAlc immunoassay
# T1 construct: from tissue; host or cells: whole blood, lysed (freeze/thaw) and denatured
# Source text: Blood lysis is necessary to release the hemoglobin followed by denaturing to expose the HbAlc epitope. Lysis can easily be accomplished via surfactants, osmotic effects of dilution with water, and directly by many denaturants. […] Conversely, denaturing the lysed blood with a variety of known denaturants to expose the HbAlc epitope has shown significant suppression of the electrochemical response, inhibiting measurement of an HbAlc dose response.
# Denaturing the sample for antibody recognition without severely fouling the electrode surface is important for successful development of an HbAlc immunoassay. Although LiSCN has been used almost exclusively to show feasibility, it has many limitations that would hinder its use in the disposable. Citric acid, a solid at RT may offer benefits as a denaturant if it could be dried onto a strip followed by a diluent to adjust the pH to neutral. Acid or base blood denaturing followed by a final pH adjustment with a buffered diluent is an area worth further evaluation. One problem that was initially encountered was precipitation in adjusting the pH back to neutral, which can be overcome by using a different buffer or with the addition of surfactants.
# [2] = tested on: PAB IS (polyclonal immunosorbent purified HbAlc antibody); assay: Inhibition of osmium mediator label current with antibody; assay type: binding, sheep
# Source text: 3. Antibodies for the analytes (HbAlc and HbA0) which react specifically with the N-terminal peptides which have been incorporated into the conjugate are provided by standard methods for producing polyclonal antibodies. In this case, sheep were immunized with carrier proteins to which were conjugated the synthetic peptide sequences for HbAlc and HbA0. Following the appropriate immunization schedule, the sheep were bled, and the antibody isolated from the blood via ion exchange chromatography, followed by immunosorbent purification on a column of the same N-terminal peptide with a different linker.
# (§1) Polyclonal DE (ion-exchange) purified sheep antibody is used in the TinaQuant HbAlc assay. IS (immunosorbent) antibody is prepared using standard IS purification methodology. Samples of a monoclonal antibody were also obtained for evaluation. Inhibition curves were performed in solution with all mixing occurring in microcentrifuge tubes. Inhibition curves with the three hemoglobin Alc antibodies (PAB IS, PAB DE, and MAB) were generated by fixing OS—DSG—Alc at 5 μM and varying the antibody concentration. […] From the inhibition curves we were able to select reasonable concentrations of antibody for maximum reversal with Alc samples.
# While these feasibility studies for a HbAlc immunoassay used an enzyme mediated amplification method. […]
# [3] = Storage stability of osmium mediator-peptide conjugates; details: for Stability in solution: stored as solution
# Experimental: Stability of the mediator labels were also evaluated by monitoring % inhibition values over time.
# [4] = tested on: Sheep B<HBA0>; assay: Inhibition of osmium mediator label current with antibody; assay type: binding
# Source text: HbAlc assay requires measuring both Al c concentration and total hemoglobin concentration and reports the results as a ratio of these two measurements (%HbAlc). It is advantageous to assay both Alc and total hemoglobin using same principle because ratioing would minimize biases due to environmental effects. Thus antibody has been raised to bind specifically to hemoglobins with unglycosylated N-terminus, i.e. with an epitope sequence of Val-His-Leu-Thr(SEQ ID NO:5). Similarly, nonnative amino acid is added to the sequence to facilitate conjugation. The peptides used for total hemoglobin measurement is termed as A0 peptide. A0 peptides that have been used in the preparation of Os mediator-peptide conjugates include Val-His-Leu-Thr-Cys(SEQ ID NO:6) and Val-His-Leu-Thr-Lys(SEQ ID NO:7).
# [5] = tested on: Zymed rabbit antibodies; assay: as above; assay type: binding
# Experimental: (§3) Mediator concentration dose response, inhibition with antibody and reversal with a BSA—Alc polyhaptan were evaluated and summarized in Table 5.
# [6] = tested on: HbA0 antibody; assay: Inhibition reversal with A0HB-peptide#1; assay type: binding
# Experimental: as §3
# [7] = molecular target: glucose oxidase (Aspergillus niger, UniProt P13006); details: with glucose oxidase; cited from earlier work
# glucose oxidase, sequence (P13006 17-605, species assumed): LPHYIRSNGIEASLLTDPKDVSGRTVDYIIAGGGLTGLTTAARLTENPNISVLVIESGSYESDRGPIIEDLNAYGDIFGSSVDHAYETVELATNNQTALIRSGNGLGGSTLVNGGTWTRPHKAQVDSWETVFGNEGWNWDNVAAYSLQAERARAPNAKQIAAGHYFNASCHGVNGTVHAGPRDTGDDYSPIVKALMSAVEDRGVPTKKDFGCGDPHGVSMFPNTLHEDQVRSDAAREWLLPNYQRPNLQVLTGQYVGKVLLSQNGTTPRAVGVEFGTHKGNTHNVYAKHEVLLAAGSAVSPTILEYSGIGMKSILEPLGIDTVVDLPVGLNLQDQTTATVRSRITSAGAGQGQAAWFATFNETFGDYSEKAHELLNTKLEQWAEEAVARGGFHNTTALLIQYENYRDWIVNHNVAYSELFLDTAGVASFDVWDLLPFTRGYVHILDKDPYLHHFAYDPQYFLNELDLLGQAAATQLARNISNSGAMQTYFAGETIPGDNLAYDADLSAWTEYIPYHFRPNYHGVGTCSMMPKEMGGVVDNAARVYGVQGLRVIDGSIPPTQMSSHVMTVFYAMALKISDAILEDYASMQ
# [8] = tested on: PAB DE (polyclonal ion-exchange purified HbAlc antibody); assay: Inhibition of osmium mediator label current with antibody; assay type: binding, sheep
# Experimental: as §1
# (§2) While these feasibility studies for a HbAlc immunoassay used an enzyme mediated amplification method. (Glucdor/PQQ/glucose was used to regenerate reduced mediator after oxidation at the electrode surface providing a higher diffusion controlled current is given by the cottrell equation), they are considered to be indicative of results attainable with the use of IDA electrodes with bipotentiostatic control in accordance with this invention.
# [9] = tested on: MAB (monoclonal HbAlc antibody); assay: as above; assay type: binding
# Experimental: as §1, §2
# T1 sequence (P68871 2-147 limits assumed): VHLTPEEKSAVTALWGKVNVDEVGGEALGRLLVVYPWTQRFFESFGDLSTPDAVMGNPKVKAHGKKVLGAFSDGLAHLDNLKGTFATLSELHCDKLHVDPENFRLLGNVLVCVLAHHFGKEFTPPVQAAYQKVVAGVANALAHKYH
molecule,measurement,setting,value
[O-][Cl+3]([O-])([O-])O [Perchloric Acid],Evidence of blood denaturing,[1],Evidence of blood denaturing was seen by all: “solution
[Na+].[OH-] [NaOH],Evidence of blood denaturing,[1],Evidence of denaturing: “solution turned brown.”
O=C(O)CC(O)(CC(=O)O)C(=O)O [citric acid],Blood HbAlc dose response with denatured blood,[1],able to expose the Alc epitope and minimize protein fouling enough to measure an HbAlc dose response
same,Evidence of blood denaturing,[1],Evidence of blood denaturing was seen by all: “solution
CC(C)CC(NC(=O)C(Cc1cnc[nH]1)NC(=O)C(NCC1(O)OCC(O)C(O)C1O)C(C)C)C(=O)NC(C(=O)NC(CCCCNC(=O)CCCCCN1C(=O)CC(SCC(=O)NCCc2c[n+]([Os]34([Cl])([n+]5ccccc5-c5cccc[n+]53)[n+]3ccccc3-c3cccc[n+]34)c[nH]2)C1=O)C(=O)O)C(C)O (stereo not drawn) [Os-SATA-Alc],Inhibition with Antibody PAB IS,[2],PAB IS (≦44%)
same,Stability in solution,[3],Stability similar
CC(C)CC(NC(=O)C(Cc1cnc[nH]1)NC(=O)C(N)C(C)C)C(=O)NC(C(=O)NC(CCCCNC(=O)CCCCCN1C(=O)CC(SCC(=O)NCCc2c[n+]([Os]34([Cl])([n+]5ccccc5-c5cccc[n+]53)[n+]3ccccc3-c3cccc[n+]34)c[nH]2)C1=O)C(=O)O)C(C)O (stereo not drawn) [Os-SATA-A0],Inhibition with Antibody Sheep B<HBA0>,[4],≤ 84%
same,Inhibition with Zymed rabbit antibodies,[5],No
same,Reversal,[6],No
same,Stability in solution,[3],unstable in solu-
O=S(=O)(O)O [Sulfuric Acid],Evidence of blood denaturing,[1],Evidence of blood denaturing was seen by all: “solution
N#C[S-].[K+] [KSCN],Blood HbAlc dose response with denatured blood,[1],Initial work did not show a dose response with KSCN
bis(bipyridyl) imidazolyl chloroosmium,mediation kinetics relative to ferricyanide,[7],about 500 times faster
N#C[S-].[Li+] [LiSCN],Blood HbAlc dose response with denatured blood,[1],able to expose the Alc epitope and minimize protein fouling enough to measure an HbAlc dose response
Cl [Hydrochloric Acid],Evidence of blood denaturing,[1],Evidence of blood denaturing was seen by all: “solution
"CCCCCCCCCCCCCC[N+](C)(C)C.[Br-] [TTAB, Tetra decyltrimethyl ammonium bromide]",Evidence of blood denaturing,[1],Evidence of denaturing: “solution turned green”
CC(C)CC(NC(=O)C(Cc1cnc[nH]1)NC(=O)C(NCC1(O)OCC(O)C(O)C1O)C(C)C)C(=O)NC(C(=O)NC(CCCCNC(=O)CCCC(=O)NCCc1c[n+]([Os]23([Cl])([n+]4ccccc4-c4cccc[n+]42)[n+]2ccccc2-c2cccc[n+]23)c[nH]1)C(=O)O)C(C)O (stereo not drawn) [Os-DSG-Alc],Inhibition with Antibody PAB IS,[2],PAB IS (≦91%)
same,Inhibition with Antibody PAB DE,[8],PAB DE (≦87%)
same,Inhibition with Antibody MAB,[9],MAB (≦78%)
same,Stability in lyophilized form,[3]; lyophilized,stable
same,Stability frozen in solution,"[3]; −20° C., 40 and 80 μM",stable
